# Measurements: PubChem BioAssay (NCI)
#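 Protocol summary: plate cells (96-well), add compound at 5 concentrations, incubate 48 h, interpolate endpoints linearly. The concentration for full growth arrest is given as TGI.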
# Tested on: KM12 colon
# Test: NCI tumour cell line growth inhibition, 48 h
row,Structure (SMILES),TGI
1,NC(=S)Nc1ccc(S(=O)(=O)Nc2ccc(S(N)(=O)=O)cc2)cc1,> 100 µM
2,NNc1nncc2n[nH]nc12,> 100 µM
3,CCOC(=O)C(Cc1cn(S(=O)(=O)c2ccccc2)c2ccccc12)(NC(C)=O)C(=O)OCC,> 100 µM

# Tested on: MDA-MB-231 breast
# Test: NCI tumour cell line growth inhibition, 48 h
row,Structure (SMILES),TGI
1,COc1cc(OC)c2c(=O)c(OC)c(-c3ccc4c(c3)OCO4)oc2c1,> 100 µM
2,CC1(C)CC(=O)C(/C=N/c2nc(-c3ccccc3)cs2)=C(O)C1,96.8 µM
3,COc1ccc(C2C3=C(Nc4ncnn42)c2ccccc2OC3c2ccccc2)cc1 (centres undefined),> 100 µM
4,N#Cc1c(-c2ccccc2)cc(Nc2cccc(C(F)(F)F)c2)n2c1nc1ccccc12,9.85 µM
5,CC(C)Oc1ccc2c(c1)OCC1Cc3ccccc3OC21 (centres undefined),> 100 µM
6,c1csc(-c2cc(-c3cccs3)c(-c3ccsc3)s2)c1,> 100 µM
7,Cc1nn(C(=O)Cc2ccccc2)c2c1C(c1ccc(N(C)C)cc1)SC(N)=N2 (centres undefined),> 100 µM
8,CCn1c(SCC(=O)NNC(=S)Nc2ccc(C)cc2)nc2ccccc2c1=O,> 100 µM
9,NC(=S)Nc1ccc(S(=O)(=O)Nc2ccc(S(N)(=O)=O)cc2)cc1,> 100 µM
10,NNc1nncc2n[nH]nc12,> 100 µM

# Tested on: NCI-H460 lung
# Test: NCI tumour cell line growth inhibition, 48 h
row,Structure (SMILES),TGI
1,O=c1c2cc(S(=O)(=O)O)ccc2nc(COc2ccc(Oc3ccc(Cl)cc3Cl)cc2)n1-c1ccc(Cl)cc1Oc1c(Cl)cccc1Cl,46.5 µM
2,C=C1CCC23CC(CC[C@@H]2[C@@]12C[C@@H](c1ccoc1)OC2=O)OC3=O (some centres undefined),> 100 µM
3,O=C1O/C(=C(/Cl)c2cccc3ccccc23)c2ccccc21,> 100 µM
4,COc1cc(OC)c2c(=O)c(OC)c(-c3ccc4c(c3)OCO4)oc2c1,> 100 µM
5,CC1(C)CC(=O)C(/C=N/c2nc(-c3ccccc3)cs2)=C(O)C1,> 100 µM
6,COc1ccc(C2C3=C(Nc4ncnn42)c2ccccc2OC3c2ccccc2)cc1 (centres undefined),> 100 µM
7,N#Cc1nc(C2=C(Cl)c3ccccc3OC2)[nH]c1C#N,75.4 µM
8,O=C1C=CC=C/C1=C1\N=C(c2ccccc2OCC(=O)c2ccc(Br)cc2)SS1,> 100 µM
9,COc1ccc(-c2cc(=O)c3ccccc3[nH]2)c(OC)c1,> 100 µM
10,O=c1[nH]nc(Cc2ccccc2)[nH]1,> 100 µM
11,N#Cc1c(-c2ccccc2)cc(Nc2cccc(C(F)(F)F)c2)n2c1nc1ccccc12,17.7 µM
12,c1csc(-c2cc(-c3cccs3)c(-c3ccsc3)s2)c1,> 100 µM
13,Cc1ccc(S(=O)(=O)OC(c2ccc(Cl)cc2Cl)C2OC(=O)c3ccccc32)cc1 (centres undefined),> 100 µM
14,CC(=O)N[C@@H](Cc1ccc(O)cn1)C(=O)NCc1cccc(Cl)c1,> 100 µM
15,Cc1nn(C(=O)Cc2ccccc2)c2c1C(c1ccc(N(C)C)cc1)SC(N)=N2 (centres undefined),> 100 µM
16,COC(=O)C(NC(=O)c1ccccc1)c1ccco1 (centres undefined),> 100 µM
17,NC(=S)Nc1ccc(S(=O)(=O)Nc2ccc(S(N)(=O)=O)cc2)cc1,> 100 µM
18,NNc1nncc2n[nH]nc12,> 100 µM
19,CCOC(=O)C(Cc1cn(S(=O)(=O)c2ccccc2)c2ccccc12)(NC(C)=O)C(=O)OCC,> 100 µM

# Tested on: NCI-H522 lung
# Test: NCI tumour cell line growth inhibition, 48 h
row,Structure (SMILES),TGI
1,O=c1c2cc(S(=O)(=O)O)ccc2nc(COc2ccc(Oc3ccc(Cl)cc3Cl)cc2)n1-c1ccc(Cl)cc1Oc1c(Cl)cccc1Cl,48.4 µM
2,C=C1CCC23CC(CC[C@@H]2[C@@]12C[C@@H](c1ccoc1)OC2=O)OC3=O (some centres undefined),> 100 µM
3,O=C1O/C(=C(/Cl)c2cccc3ccccc23)c2ccccc21,> 100 µM
4,COc1cc(OC)c2c(=O)c(OC)c(-c3ccc4c(c3)OCO4)oc2c1,92.3 µM
5,COc1ccc(-c2cc(=O)c3ccccc3[nH]2)c(OC)c1,> 100 µM
6,O=c1[nH]nc(Cc2ccccc2)[nH]1,> 100 µM
7,N#Cc1c(-c2ccccc2)cc(Nc2cccc(C(F)(F)F)c2)n2c1nc1ccccc12,1.37 µM
8,CC(C)Oc1ccc2c(c1)OCC1Cc3ccccc3OC21 (centres undefined),> 100 µM
9,Cc1ccc(S(=O)(=O)OC(c2ccc(Cl)cc2Cl)C2OC(=O)c3ccccc32)cc1 (centres undefined),> 100 µM
10,CC(=O)N[C@@H](Cc1ccc(O)cn1)C(=O)NCc1cccc(Cl)c1,> 100 µM
11,Cc1nn(C(=O)Cc2ccccc2)c2c1C(c1ccc(N(C)C)cc1)SC(N)=N2 (centres undefined),> 100 µM
12,CCn1c(SCC(=O)NNC(=S)Nc2ccc(C)cc2)nc2ccccc2c1=O,> 100 µM
13,NC(=S)Nc1ccc(S(=O)(=O)Nc2ccc(S(N)(=O)=O)cc2)cc1,> 100 µM
14,CCOC(=O)C(Cc1cn(S(=O)(=O)c2ccccc2)c2ccccc12)(NC(C)=O)C(=O)OCC,52.5 µM

# Tested on: OVCAR-5 ovarian
# Test: NCI tumour cell line growth inhibition, 48 h
row,Structure (SMILES),TGI
1,O=c1c2cc(S(=O)(=O)O)ccc2nc(COc2ccc(Oc3ccc(Cl)cc3Cl)cc2)n1-c1ccc(Cl)cc1Oc1c(Cl)cccc1Cl,60.6 µM
2,C=C1CCC23CC(CC[C@@H]2[C@@]12C[C@@H](c1ccoc1)OC2=O)OC3=O (some centres undefined),> 100 µM
3,O=C1O/C(=C(/Cl)c2cccc3ccccc23)c2ccccc21,> 100 µM
4,COc1cc(OC)c2c(=O)c(OC)c(-c3ccc4c(c3)OCO4)oc2c1,> 100 µM
5,CC1(C)CC(=O)C(/C=N/c2nc(-c3ccccc3)cs2)=C(O)C1,> 100 µM
6,COc1ccc(C2C3=C(Nc4ncnn42)c2ccccc2OC3c2ccccc2)cc1 (centres undefined),> 100 µM
7,N#Cc1nc(C2=C(Cl)c3ccccc3OC2)[nH]c1C#N,> 100 µM
8,O=C1C=CC=C/C1=C1\N=C(c2ccccc2OCC(=O)c2ccc(Br)cc2)SS1,> 100 µM
9,O=c1[nH]nc(Cc2ccccc2)[nH]1,> 100 µM
10,N#Cc1c(-c2ccccc2)cc(Nc2cccc(C(F)(F)F)c2)n2c1nc1ccccc12,10.7 µM
11,CC(C)Oc1ccc2c(c1)OCC1Cc3ccccc3OC21 (centres undefined),> 100 µM
12,Cc1ccc(S(=O)(=O)OC(c2ccc(Cl)cc2Cl)C2OC(=O)c3ccccc32)cc1 (centres undefined),> 100 µM
13,CC(=O)N[C@@H](Cc1ccc(O)cn1)C(=O)NCc1cccc(Cl)c1,> 100 µM
14,CCn1c(SCC(=O)NNC(=S)Nc2ccc(C)cc2)nc2ccccc2c1=O,> 100 µM
15,COC(=O)C(NC(=O)c1ccccc1)c1ccco1 (centres undefined),> 100 µM
16,NC(=S)Nc1ccc(S(=O)(=O)Nc2ccc(S(N)(=O)=O)cc2)cc1,> 100 µM
17,NNc1nncc2n[nH]nc12,> 100 µM
18,CCOC(=O)C(Cc1cn(S(=O)(=O)c2ccccc2)c2ccccc12)(NC(C)=O)C(=O)OCC,> 100 µM

# Tested on: RPMI-8226 leukemia
# Test: NCI tumour cell line growth inhibition, 48 h
row,Structure (SMILES),TGI
1,O=c1c2cc(S(=O)(=O)O)ccc2nc(COc2ccc(Oc3ccc(Cl)cc3Cl)cc2)n1-c1ccc(Cl)cc1Oc1c(Cl)cccc1Cl,64.7 µM
2,C=C1CCC23CC(CC[C@@H]2[C@@]12C[C@@H](c1ccoc1)OC2=O)OC3=O (some centres undefined),> 100 µM
3,O=C1O/C(=C(/Cl)c2cccc3ccccc23)c2ccccc21,> 100 µM
4,N#Cc1nc(C2=C(Cl)c3ccccc3OC2)[nH]c1C#N,61 µM
5,O=C1C=CC=C/C1=C1\N=C(c2ccccc2OCC(=O)c2ccc(Br)cc2)SS1,> 100 µM
6,COc1ccc(-c2cc(=O)c3ccccc3[nH]2)c(OC)c1,> 100 µM
7,O=c1[nH]nc(Cc2ccccc2)[nH]1,> 100 µM
8,N#Cc1c(-c2ccccc2)cc(Nc2cccc(C(F)(F)F)c2)n2c1nc1ccccc12,6.74 µM
9,CC(C)Oc1ccc2c(c1)OCC1Cc3ccccc3OC21 (centres undefined),> 100 µM
10,c1csc(-c2cc(-c3cccs3)c(-c3ccsc3)s2)c1,> 100 µM
11,Cc1ccc(S(=O)(=O)OC(c2ccc(Cl)cc2Cl)C2OC(=O)c3ccccc32)cc1 (centres undefined),> 100 µM
12,CC(=O)N[C@@H](Cc1ccc(O)cn1)C(=O)NCc1cccc(Cl)c1,> 100 µM
13,Cc1nn(C(=O)Cc2ccccc2)c2c1C(c1ccc(N(C)C)cc1)SC(N)=N2 (centres undefined),> 100 µM
14,CCn1c(SCC(=O)NNC(=S)Nc2ccc(C)cc2)nc2ccccc2c1=O,> 100 µM
15,COC(=O)C(NC(=O)c1ccccc1)c1ccco1 (centres undefined),> 100 µM
16,NC(=S)Nc1ccc(S(=O)(=O)Nc2ccc(S(N)(=O)=O)cc2)cc1,> 100 µM
17,NNc1nncc2n[nH]nc12,> 100 µM
18,CCOC(=O)C(Cc1cn(S(=O)(=O)c2ccccc2)c2ccccc12)(NC(C)=O)C(=O)OCC,44.7 µM

# Tested on: SF-295 CNS
# Test: NCI tumour cell line growth inhibition, 48 h
row,Structure (SMILES),TGI
1,O=c1c2cc(S(=O)(=O)O)ccc2nc(COc2ccc(Oc3ccc(Cl)cc3Cl)cc2)n1-c1ccc(Cl)cc1Oc1c(Cl)cccc1Cl,56.6 µM
2,C=C1CCC23CC(CC[C@@H]2[C@@]12C[C@@H](c1ccoc1)OC2=O)OC3=O (some centres undefined),> 100 µM
3,O=C1O/C(=C(/Cl)c2cccc3ccccc23)c2ccccc21,> 100 µM
4,COc1cc(OC)c2c(=O)c(OC)c(-c3ccc4c(c3)OCO4)oc2c1,61.7 µM
5,CC1(C)CC(=O)C(/C=N/c2nc(-c3ccccc3)cs2)=C(O)C1,> 100 µM
6,COc1ccc(C2C3=C(Nc4ncnn42)c2ccccc2OC3c2ccccc2)cc1 (centres undefined),> 100 µM
7,O=C1C=CC=C/C1=C1\N=C(c2ccccc2OCC(=O)c2ccc(Br)cc2)SS1,> 100 µM
